Data: patent US10208019B2, “GLP-1 receptor agonists and uses thereof” (Pfizer Inc., priority 2016, dated 2019)
Read-outs that look alike come from different tables or passages of the source.

What was measured:
human GLP-1R [1] = molecular target: human GLP-1R (Homo sapiens (Human), UniProt P43220, L260F); test: CHO GLP-1R Clone C6—Assay 2: HTRF cAMP cell-based functional agonist assay (low GLP-1R density); conditions: for EC50: CHO GLP-1R Clone C6, cAMP HTRF, geometric mean; for Emax: read-out: Assay 2 Emax (%)
Procedure: GLP-1R-mediated agonist activity was determined with a cell-based functional assay utilizing an HTRF (Homogeneous Time-Resolved Fluorescence) cAMP detection kit (cAMP HI Range Assay Kit; Cis Bio cat #62AM6PEJ) that measures cAMP levels in the cell. The method is a competitive immunoassay between native cAMP produced by the cells and exogenous cAMP labeled with the dye d2. The tracer binding is visualized by a mAb anti-cAMP labeled with Cryptate. The specific signal (i.e. energy transfer) is inversely proportional to the concentration of cAMP in either a standard or an experimental sample.
The human GLP-1R coding sequence (NCBI Reference Sequence NP_002053.3, including naturally-occurring variant Leu260Phe) was subcloned into pcDNA5-FRT-TO and a clonal CHO cell line stably expressing a low receptor density was isolated using the Flp-In™ T-Rex™ System, as described by the manufacturer (ThermoFisher).
Cells were removed from cryopreservation, re-suspended in 40 mL of Dulbecco's Phosphate Buffered Saline (DPBS-Lonza Cat #17-512Q) and centrifuged at 800×g for 5 min at 22° C. The DPBS was aspirated, and the cell pellet was re-suspended in 10 mL of complete growth medium (DMEM:F12 1:1 Mixture with HEPES, L-Gln, 500 mL (DMEM/F12 Lonza Cat #12-719F), 10% heat inactivated fetal bovine serum (Gibco Cat #16140-071), 5 mL of 100× Pen-Strep (Gibco Cat #15140-122), 5 mL of 100× L-Glutamine (Gibco Cat #25030-081), 700 μg/mL Hygromycin (Invitrogen Cat #10687010) and 15 μg/mL Blasticidin (Gibco Cat #R21001). A 1 mL sample of the cell suspension in growth media was counted on a Becton Dickinson ViCell to determine cell viability and cell count per mL. The remaining cell suspension was then adjusted with growth media to deliver 1600 viable cells per well using a Matrix Combi Multidrop reagent dispenser, and the cells were dispensed into a white 384 well tissue culture treated assay plate (Corning 3570). The assay plate was then incubated for 48 h at 37° C. in a humidified environment (95% O2, 5% CO2)
Varying concentrations of each compound to be tested (in DMSO) were diluted in assay buffer [HBSS with Calcium/Magnesium (Lonza/BioWhittaker cat #10-527F)/0.1% BSA (Sigma Aldrich cat #A7409-1L)/20 mM HEPES (Lonza/BioWhittaker cat #17-737E)] containing 100 μM 3-isobutyl-1-methylxanthin (IBMX; Sigma cat #15879). The final DMSO concentration in the compound/assay buffer mixture is 1%.
After 48 h, the growth media was removed from the assay plate wells, and the cells were treated with 20 μL of the serially diluted compound in assay buffer for 30 min at 37° C. in a humidified environment (95% O2, 5% CO2). Following the 30 min incubation, 10 μL of labeled d2 cAMP and 10 μL of anti-cAMP antibody (both diluted 1:20 in cell lysis buffer; as described in the manufacturer's assay protocol) were added to each well of the assay plate. The plates were then incubated at room temperature and after 60 minutes, changes in the HTRF signal were read with an Envision 2104 multi-label plate reader using excitation of 330 nm and emissions of 615 and 665 nm. Raw data were converted to nM cAMP by interpolation from a cAMP standard curve (as described in the manufacturer's assay protocol) and the percent effect was determined relative to a saturating concentration of the full agonist GLP-1 (1 μM) included on each plate. EC50 determinations were made from agonist dose response curves analyzed with a curve fitting program using a 4-parameter logistic dose response equation.

human GLP-1R [2] = molecular target: human GLP-1R (Homo sapiens, UniProt P43220, G168S); test: CHO GLP-1R Clone H6—Assay 1: HTRF cAMP cell-based functional agonist assay (high GLP-1R density); conditions: for EC50: CHO GLP-1R Clone H6, cAMP HTRF, geometric mean
Procedure: GLP-1R-mediated agonist activity was determined with a cell-based functional assay utilizing an HTRF (Homogeneous Time-Resolved Fluorescence) cAMP detection kit (cAMP HI Range Assay Kit; CisBio cat #62AM6PEJ) that measures cAMP levels in the cell. The method is a competitive immunoassay between native cAMP produced by the cells and exogenous cAMP labeled with the dye d2. The tracer binding is visualized by a mAb anti-cAMP labeled with Cryptate. The specific signal (i.e. energy transfer) is inversely proportional to the concentration of cAMP in either standard or experimental sample.
The human GLP-1R coding sequence (NCBI Reference Sequence NP_002053.3, including naturally-occurring variant Gly168Ser) was subcloned into pcDNA3 (Invitrogen) and a cell line stably expressing the receptor was isolated (designated Clone H6).
Cells were removed from cryopreservation, re-suspended in 40 mL of Dulbecco's Phosphate Buffered Saline (DPBS-Lonza Cat #17-512Q) and centrifuged at 800×g for 5 min at 22° C. The cell pellet was then re-suspended in 10 mL of growth medium [DMEM/F12 1:1 Mixture with HEPES, L-Gln, 500 mL (DMEM/F12 Lonza Cat #12-719F), 10% heat inactivated fetal bovine serum (Gibco Cat #16140-071), 5 mL of 100× Pen-Strep (Gibco Cat #15140-122), 5 mL of 100× L-Glutamine (Gibco Cat #25030-081) and 500 μg/mL Geneticin (G418) (Invitrogen #10131035)]. A 1 mL sample of the cell suspension in growth media was counted on a Becton Dickinson ViCell to determine cell viability and cell count per mL. The remaining cell suspension was then adjusted with growth media to deliver 2000 viable cells per well using a Matrix Combi Multidrop reagent dispenser, and the cells were dispensed into a white 384 well tissue culture treated assay plate (Corning 3570). The assay plate was then incubated for 48 hours at 37° C. in a humidified environment in 5% carbon dioxide.
Varying concentrations of each compound to be tested (in DMSO) were diluted in assay buffer (HBSS with Calcium/Magnesium (Lonza/BioWhittaker cat #10-527F)/0.1% BSA (Sigma Aldrich cat #A7409-1L)/20 mM HEPES (Lonza/BioWhiftaker cat #17-737E) containing 100 μM 3-isobutyl-1-methylxanthin (IBMX; Sigma cat #15879). The final DMSO concentration is 1%.
After 48 hours, the growth media was removed from the assay plate wells, and the cells were treated with 20 μL of the serially diluted compound in assay buffer for 30 minutes at 37° C. in a humidified environment in 5% carbon dioxide. Following the 30 minute incubation, 10 μL of labeled d2 cAMP and 10 μL of anti-cAMP antibody (both diluted 1:20 in cell lysis buffer; as described in the manufacturer's assay protocol) were added to each well of the assay plate. The plates were then incubated at room temperature and after 60 minutes, changes in the HTRF signal were read with an Envision 2104 multi-label plate reader using excitation of 330 nm and emissions of 615 and 665 nm. Raw data were converted to nM cAMP by interpolation from a cAMP standard curve (as described in the manufacturer's assay protocol) and the percent effect was determined relative to a saturating concentration of the full agonist GLP-17-36 (1 μM) included on each plate. EC50 determinations were made from agonist dose-response curves analyzed with a curve fitting program using a 4-parameter logistic dose response equation.

[3] = CHO GLP-1R Clone C6, relative to saturating concentration of full agonist GLP-1 (1 μM), arithmetic mean
[4] = read-out: Assay 1 Emax (%), CHO GLP-1R Clone H6, relative to saturating concentration of full agonist GLP-1 (1 μM), arithmetic mean

Chain of human GLP-1R (Homo sapiens, UniProt P43220, G168S) (P43220 24-463 G168S limits assumed): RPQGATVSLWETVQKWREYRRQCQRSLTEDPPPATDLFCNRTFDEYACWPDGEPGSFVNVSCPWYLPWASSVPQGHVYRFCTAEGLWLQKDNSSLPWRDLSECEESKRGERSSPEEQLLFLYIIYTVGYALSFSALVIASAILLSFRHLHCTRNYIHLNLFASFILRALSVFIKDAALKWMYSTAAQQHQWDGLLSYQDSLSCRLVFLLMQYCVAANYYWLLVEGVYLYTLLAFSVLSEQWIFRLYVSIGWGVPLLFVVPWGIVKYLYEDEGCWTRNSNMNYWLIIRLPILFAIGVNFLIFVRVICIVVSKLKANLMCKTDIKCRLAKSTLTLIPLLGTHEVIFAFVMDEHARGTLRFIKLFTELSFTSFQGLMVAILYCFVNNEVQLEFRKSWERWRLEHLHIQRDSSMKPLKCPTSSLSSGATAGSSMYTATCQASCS
Chain of human GLP-1R (Homo sapiens (Human), UniProt P43220, L260F) (P43220 24-463 L260F): as the sequence (P43220 24-463 G168S limits assumed) above, with S145G, L237F counted along it

| SMILES | EC50 (human GLP-1R [1]) [nM] | Emax (human GLP-1R [1]; [3]) [%] | EC50 (human GLP-1R [2]; read-out: Assay 1 EC50) [nM] | Emax (human GLP-1R [2]; [4]) [%] | EC50 (human GLP-1R [2]; Assay 1 EC50 (nM)) [nM] | Emax (human GLP-1R [1]) [%] | Emax (human GLP-1R [2]; read-out: Assay 1 Emax (%)) [%] |
| --- | --- | --- | --- | --- | --- | --- | --- |
| Cn1nncc1Cn1c(CN2CCC(c3cccc(OCc4ccc(Cl)cc4F)n3)CC2)nc2ccc(C(=O)O)cc21 [Example 11A-72, 2-[(4-{6-[(4-chloro-2-fluorobenzyl)oxy]pyridin-2-yl}piperidin-1-yl)methyl]-1-[(1-methyl-1H-1,2,3-triazol-5-yl]methyl]-1H-benzimidazole-6-carboxylic acid] | 41 | 77 | 5 | 82 | – | – | – |
| N#Cc1ccc(COc2cccc(C3CCN(Cc4nc5ccc(C(=O)O)cc5n4Cc4cnco4)CC3)n2)c(F)c1 [Example 10A-43, 2-[(4-{6-[(4-cyano-2-fluorobenzyl)oxy]pyridin-2-yl}piperidin-1-yl)methyl]-1-(1,3-oxazol-5-ylmethyl)-1H-benzimidazole-6-carboxylic acid] | 48 | 79 | 4 | 64 | – | – | – |
| C[C@H]1CN(c2cccc(OCc3ccc(C#N)cc3)n2)CCN1Cc1nc2ccc(C(=O)O)cc2n1CC1CCCO1 (single isomer, unassigned; diastereomer 2) [Example 14A-08] | 380 | – | 19 | – | – | – | – |
| COCCn1c(CN2CCC(c3cccc(OCc4ccc(Cl)cc4F)n3)CC2)nc2ccc(C(=O)O)c(F)c21 [Example 2A-08, 2-[(4-{6-[(4-chloro-2-fluorobenzyl)oxy]pyridin-2-yl}piperidin-1-yl)methyl]-7-fluoro-1-(2-methoxyethyl)-1H-benzimidazole-6-carboxylic acid] | 94 | 76 | 5.8 | 72 | – | – | – |
| Cn1cncc1Cn1c(CN2CCN(c3cccc(OCc4ccc(C#N)cc4F)n3)CC2)nc2ccc(C(=O)O)cc21 [Example 10A-37, 2-[(4-{6-[(4-cyano-2-fluorobenzyl)oxy]pyridin-2-yl}piperazin-1-yl)methyl]-1-[(1-methyl-1H-imidazol-5-yl)methyl]-1H-benzimidazole-6-carboxylic acid] | 23 | 110 | 3.4 | 86 | – | – | – |
| COCCn1c(CN2CCN(c3cccc(OCc4ccc(Cl)cc4F)n3)CC2C(F)(F)F)nc2ccc(C(=O)O)cc21 (single isomer, unassigned; enantiomer 2) [Example 12A-02, 2-((4-(6-((4-Chloro-2-fluorobenzyl)oxy)pyridin-2-yl)-2-(trifluoromethyl)piperazin-1-yl)methyl)-1-(2-methoxyethyl)-1H-benzo[d]imidazole-6-carboxylic acid, enantiomer 2] | 1600 | 82 | – | 71 | 36 | – | – |
| O=C(O)c1ccc2nc(CN3CCC(c4cccc(OCc5ccc(Cl)cc5F)n4)CC3)n(Cc3cc[nH]n3)c2c1 [Example 11A-24, 2-[(4-{6-[(4-chloro-2-fluorobenzyl)oxy]pyridin-2-yl}piperidin-1-yl)methyl]-1-(1H-pyrazol-3-ylmethyl)-1H-benzimidazole-6-carboxylic acid] | 450 | 89 | 28 | 80 | – | – | – |
| Cn1cncc1Cn1c(CN2CCC(c3cccc(OCc4ccc(Cl)cc4F)n3)CC2)nc2ccc(C(=O)O)cc21 [Example 11A-70, 2-[(4-{6-[(4-chloro-2-fluorobenzyl)oxy]pyridin-2-yl}piperidin-1-yl)methyl]-1-[(1-methyl-1H-imidazol-5-yl)methyl]-1H-benzimidazole-6-carboxylic acid] | 10 | 89 | 0.7 | 86 | – | – | – |
| N#Cc1ccc(COc2cccc(N3CCN(Cc4nc5ccc(C(=O)O)cc5n4Cc4ncco4)CC3)n2)c(F)c1 [Example 10A-34, 2-[(4-{6-[(4-cyano-2-fluorobenzyl)oxy]pyridin-2-yl}piperazin-1-yl)methyl]-1-(1,3-oxazol-2-ylmethyl)-1H-benzimidazole-6-carboxylic acid] | 29 | 95 | 1.5 | 80 | – | – | – |
| N#Cc1ccc(COc2cccc(C3CCN(Cc4nc5ccc(C(=O)O)cc5n4C[C@@H]4CCO4)CC3)n2)c(F)c1 [Example 4A-01, 2-[(4-{6-[(4-cyano-2-fluorobenzyl)oxy]pyridin-2-yl}piperidin-1-yl)methyl]-1-[(2S)-oxetan-2-ylmethyl]-1H-benzimidazole-6-carboxylic acid] | – | – | – | – | – | 100 | 79 |
| C[C@H]1CN(c2cccc(OCc3ccc(C#N)cc3F)n2)CCN1Cc1nc2ccc(C(=O)O)nc2n1Cc1ncco1 [Example 2A-21, 2-{[(2S)-4-{6-[(4-cyano-2-fluorobenzyl)oxy]pyridin-2-yl}-2-methylpiperazin-1-yl]methyl}-3-(1,3-oxazol-2-ylmethyl)-3H-imidazo[4,5-b]pyridine-5-carboxylic acid] | 220 | 110 | 8.5 | 88 | – | – | – |
| N#Cc1ccc(COc2cccc(N3CCN(Cc4nc5ccc(C(=O)O)cc5n4C[C@@H]4CCO4)CC3)n2)c(F)c1 [Example 5A-01, 2-[(4-{6-[(4-Cyano-2-fluorobenzyl)oxy]pyridin-2-yl}piperazin-1-yl)methyl]-1-[(2S)-oxetan-2-ylmethyl]-1H-benzimidazole-6-carboxylic acid] | 7.4 | 94 | 0.34 | 78 | – | – | – |
| CO[C@H]1C[C@@H](Cn2c(CN3CCC(c4cccc(OCc5ccc(Cl)cc5F)n4)CC3)nc3ccc(C(=O)O)cc32)C1 [Example 1A-28, 2-[(4-{6-[(4-chloro-2-fluorobenzyl)oxy]pyridin-2-yl}piperidin-1-yl)methyl]-1-[(cis-3-methoxycyclobutyl)methyl]-1H-benzimidazole-6-carboxylic acid] | 7700 | 100 | – | 92 | 300 | – | – |

Second part, led by results:

| EC50 (human GLP-1R [1]) [nM] | Emax (human GLP-1R [1]; [3]) [%] | EC50 (human GLP-1R [2]; read-out: Assay 1 EC50) [nM] | Emax (human GLP-1R [2]; [4]) [%] | EC50 (human GLP-1R [2]; Assay 1 EC50 (nM)) [nM] | SMILES | Emax (human GLP-1R [1]) [%] | Emax (human GLP-1R [2]; read-out: Assay 1 Emax (%)) [%] |
| --- | --- | --- | --- | --- | --- | --- | --- |
| 1500 | 81 | 72 | 76 | – | Cc1ccn(CCn2c(CN3CCC(c4cccc(OCc5ccc(Cl)cc5F)n4)CC3)nc3ccc(C(=O)O)cc32)n1 [Example 11A-31, 2-[(4-{6-[(4-chloro-2-fluorobenzyl)oxy]pyridin-2-yl}piperidin-1-yl)methyl]-1-[2-(3-methyl-1H-pyrazol-1-yl)ethyl]-1H-benzimidazole-6-carboxylic acid] | – | – |
| > 20000 | – | > 15000 | 98 | – | Cc1nnc(Cn2c(CN3CCC(c4cccc(OCc5ccc(Cl)cc5F)n4)CC3)nc3ccc(C(=O)O)cc32)n1C [Example 10A-20] | – | – |
| 43 | 84 | 3.2 | 77 | – | O=C(O)c1ccc2nc(CN3CCC(c4cccc(OCc5ccc(Cl)cc5F)n4)CC3)n(Cc3cnco3)c2c1 [Example 10A-01, 2-[(4-{6-[(4-Chloro-2-fluorobenzyl)oxy]pyridin-2-yl}piperidin-1-yl)methyl]-1-(1,3-oxazol-5-ylmethyl)-1H-benzimidazole-6-carboxylic acid] | – | – |
| 5 | 94 | 0.47 | 77 | – | CCn1cncc1Cn1c(CN2CCC(c3cccc(OCc4ccc(F)cc4F)n3)CC2)nc2ccc(C(=O)O)cc21 [Example 10A-32, 2-[(4-{6-[(2,4-difluorobenzyl)oxy]pyridin-2-yl}piperidin-1-yl)methyl]-1-[(1-ethyl-1H-imidazol-5-yl)methyl]-1H-benzimidazole-6-carboxylic acid] | – | – |
| 28 | 97 | 2.9 | 96 | – | CCn1nncc1Cn1c(CN2CCN(c3cccc(OCc4ccc(C#N)cc4F)n3)CC2)nc2ccc(C(=O)O)cc21 [Example 10A-62, 2-[(4-{6-[(4-cyano-2-fluorobenzyl)oxy]pyridin-2-yl}piperazin-1-yl)methyl]-1-[(1-ethyl-1H-1,2,3-triazol-5-yl)methyl]-1H-benzimidazole-6-carboxylic acid] | – | – |
| 220 | 93 | 8.1 | 74 | – | C[C@H]1CN(c2cccc(OCc3ccc(C#N)cc3F)n2)CCN1Cc1nc2ccc(C(=O)O)cc2n1Cc1cocn1 [Example 10A-14] | – | – |
| 14 | 95 | 0.96 | 80 | – | O=C(O)c1ccc2nc(CN3CCC(c4cccc(OCc5ccc(F)cc5F)n4)CC3)n(C[C@@H]3CCO3)c2n1 [Example 2A-20, 2-[(4-{6-[(2,4-difluorobenzyl)oxy]pyridin-2-yl}piperidin-1-yl)methyl]-3-[(2S)-oxetan-2-ylmethyl]-3H-imidazo[4,5-b]pyridine-5-carboxylic acid] | – | – |
| 1000 | 84 | – | 65 | 45 | COCCn1c(CN2CC[C@@H](c3cccc(OCc4ccc(Cl)cc4F)n3)[C@@H](C)C2)nc2ccc(C(=O)O)cc21 (racemic) [Example 1A-25, rac-2-{[(3R,4R)-4-{6-[(4-chloro-2-fluorobenzyl)oxy]pyridin-2-yl}-3-methylpiperidin-1-yl]methyl}-1-(2-methoxyethyl)-1H-benzimidazole-6-carboxylic acid] | – | – |
| 1600 | 46 | 140 | 72 | – | COCCn1c(CN2CCC(c3cccc(OCc4ccc(Cl)cc4F)n3)CC2)nc2cnc(C(=O)O)cc21 [Example 2A-07, 2-[(4-{6-[(4-chloro-2-fluorobenzyl)oxy]pyridin-2-yl}piperidin-1-yl)methyl]-1-(2-methoxyethyl)-1H-imidazo[4,5-c]pyridine-6-carboxylic acid] | – | – |
| 110 | 94 | 6.4 | 90 | – | CCCn1cnnc1Cn1c(CN2CCC(c3cccc(OCc4ccc(Cl)cc4F)n3)CC2)nc2ccc(C(=O)O)cc21 [Example 1A-18, 2-[(4-{6-[(4-chloro-2-fluorobenzyl)oxy]pyridin-2-yl}piperidin-1-yl)methyl]-1-[(4-propyl-4H-1,2,4-triazol-3-yl)methyl]-1H-benzimidazole-6-carboxylic acid] | – | – |
